Experimental data taken from US20110190351A1, “Benzoimidazole Derivatives and Glycogen Synthase Kinase-3 Beta Inhibitors Containing the Same” (Oncotherapy Science, Inc., priority 2008, published 2011).

What follows are compounds tested against T1, GSK3beta (Homo sapiens, UniProt P49841) (assay: Z'-LYTE kinase assay (FRET, SER/THR 9 peptide)). Details: 0.04 ng/mcl GSKbeta (Invitrogen), 2 mcM SER/THR 9 peptide, 15 mcM ATP, 1 hour at room temperature, 1% DMSO.
T1 construct: purchased Invitrogen
T1 sequence (P49841 whole entry): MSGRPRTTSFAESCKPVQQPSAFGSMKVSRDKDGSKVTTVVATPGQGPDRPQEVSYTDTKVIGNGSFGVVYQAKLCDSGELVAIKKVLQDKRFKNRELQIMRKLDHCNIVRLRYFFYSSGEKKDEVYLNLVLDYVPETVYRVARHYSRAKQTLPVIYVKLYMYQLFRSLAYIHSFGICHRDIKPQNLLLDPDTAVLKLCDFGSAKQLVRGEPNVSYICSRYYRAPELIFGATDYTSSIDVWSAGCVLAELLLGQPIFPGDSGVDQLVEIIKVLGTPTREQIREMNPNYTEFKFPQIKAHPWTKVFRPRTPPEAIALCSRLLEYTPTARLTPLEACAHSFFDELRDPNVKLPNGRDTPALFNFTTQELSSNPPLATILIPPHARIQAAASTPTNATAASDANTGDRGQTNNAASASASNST
Format: biochemical
Experimental: GSK3beta activity was measured in the presence or absence of compounds using Z′-LYTE kinase assay (Rodems S M, et al., Assay Drug Dev Technol. 1: 9-19, 2002.) kit with SER/THR 9 peptide (Invitrogen) following the manufacturer's instruction. The Z′-LYTE kinase assay kit employs a fluorescence resonance energy transfer (FRET) between two fluorophores, coumarin and fluorescein, attached to each end of a substrate peptide.
Test compounds were dissolved in DMSO at 12.5 mM and then serially diluted as the DMSO concentration in the assays to be 1%. The serially diluted compounds, 0.04 ng/mcl GSKbeta (Invitrogen) and 2 mcM SER/THR 9 peptide were reacted in a reaction buffer (50 mM HEPES pH 7.5, 0.01% Brij-35, 10 mM MgCl2, 1 mM EGTA, 15 mcM ATP). For 0% phosphorylation control, ATP was omitted from the reaction mixture. For 100% phosphorylation control, SER/THR 9 phosphopeptide was used in place of the SER/THR 9 peptide. Following 1 hour incubation at room temperature, the reaction was stopped by the addition of half assay volume of development solution and further incubated for 1 hour at room temperature. After adding the half assay volume of stop reagent, emission signals of coumarin and fluorescein were measured by Wallac EnVision 2103 multilabel reader (PerkinElmer). The extent of phosphorylation was determined according to the 0% and 100% phosphorylation control samples using the following equation:
C100%=coumarin emission signal of the 100% phosphorylation control C0%=coumarin emission signal of the 0% phosphorylation control F100%=fluorescein emission signal of the 100% phosphorylation control F0%=fluorescein emission signal of the 0% phosphorylation control
IC50 values were calculated by nonlinear four parameter fit using SigmaPlot, version 10.0 (Systat Software, Inc.).
With `O=C(N[C@@H](Cc1cnc[nH]1)C(=O)O)c1ccc(O)c2[nH]c(-c3cccs3)nc12` [Example 71, (S)-2-[7-Hydroxy-2-(thiophen-2-yl)-1H-benzo[d]imidazole-4-carboxamido]-3-(1H-imidazol-5-yl)propanoic Acid] the IC50 was 340 nM.
Compound `O=C(NCC(O)CO)c1ccc(O)c2nc(C3CC3)[nH]c12` (stereo not drawn) [Example 97, 2-Cyclopropyl-N-(2,3-dihydroxypropyl)-4-hydroxy-1H-benzo[d]imidazole-7-carboxamide] has an IC50 of 150 nM.
For `NS(=O)(=O)c1ccc(CCNC(=O)c2ccc(O)c3[nH]c(-c4cccs4)nc23)cc1` [Example 21, 7-Hydroxy-N-(4-sulfamoylphenethyl)-2-(thiophen-2-yl)-1H-benzo[d]imidazole-4-carboxamide], the IC50 was 280 nM.
`NC(=O)c1ccc(OCCNC(=O)c2ccc(O)c3[nH]c(-c4cccs4)nc23)nc1` [Example 49, N-[2-(5-Carbamoylpyridin-2-yloxy)ethyl]-7-hydroxy-2-(thiophen-2-yl)-1H-benzo[d]imidazole-4-carboxamide] gave an IC50 of 73 nM.
With `O=C(Nc1ccc(O)cc1)c1ccc(O)c2[nH]c(C3CC3)nc12` [Example 91] the IC50 was 400 nM.
In the case of `O=C(NCCc1ccc(O)c(O)c1)c1ccc(O)c2[nH]c(-c3ccco3)nc12` [Example 80, N-(3,4-Dihydroxyphenethyl)-2-(furan-2-yl)-7-hydroxy-1H-benzo[d]imidazole-4-carboxamide], the IC50 is reported as 19 nM.
For `O=C(NCc1ccc(O)c(O)c1)c1ccc(O)c2[nH]c(-c3cccs3)nc12` [Example 37, N-(3,4-Dihydroxybenzyl)-7-hydroxy-2-(thiophen-2-yl)-1H-benzo[d]imidazole-4-carboxamide], the IC50 was 38 nM.
For `Cn1cncc1CCNC(=O)c1ccc(O)c2[nH]c(-c3cccs3)nc12` [Example 35, 7-Hydroxy-N-[2-(1-methyl-1H-imidazol-5-yl)ethyl]-2-(thiophen-2-yl)-1H-benzo[d]imidazole-4-carboxamide], the IC50 was 130 nM.
For `CC(=O)Nc1ccc(NCCNC(=O)c2ccc(O)c3[nH]c(-c4cccs4)nc23)nc1` [Example 70, N-[2-(5-Acetamidopyridin-2-ylamino)ethyl]-7-hydroxy-2-(thiophen-2-yl)-1H-benzo[d]imidazole-4-carboxamide], the IC50 was 81 nM.
Compound `NS(=O)(=O)c1ccc(CCNC(=O)c2ccc(O)c3nc(C4CC4)[nH]c23)cc1` [Example 101, 2-Cyclopropyl-4-hydroxy-N-(4-sulfamoylphenethyl)-1H-benzo[d]imidazole-7-carboxamide] has an IC50 of 120 nM.
`O=C(NCCCC1C=NNC1=O)c1ccc(O)c2[nH]c(-c3ccco3)nc12` (stereo not drawn) [Example 79] was tested, and the IC50 was 30 nM.
For `CC(C)NCCCNC(=O)c1ccc(O)c2[nH]c(-c3cccs3)nc12` [Example 43, N-[3-(Isopropylamino)propyl]-7-hydroxy-2-(thiophen-2-yl)-1H-benzo[d]imidazole-4-carboxamide], the IC50 was 220 nM.
For `O=C(NCCCNCCO)c1ccc(O)c2[nH]c(-c3cccs3)nc12` [Example 12, 7-Hydroxy-N-[3-(2-hydroxyethylamino)propyl]-2-(thiophen-2-yl)-1H-benzo[d]imidazole-4-carboxamide], the IC50 was 180 nM.
With `O=C(CCc1cnc[nH]1)Nc1ccc(O)c2[nH]c(-c3cccs3)nc12` [Example 121, N-(7-hydroxy-2-(thiophen-2-yl)-1H-benzo[d]imidazol-4-yl)-3-(1H-imidazol-5-yl)propanamide] the IC50 was 1700 nM.
`O=C(NCCNc1ccccn1)c1ccc(O)c2[nH]c(-c3cccs3)nc12` [Example 11, 7-Hydroxy-N-[2-(pyridin-2-ylamino)ethyl]-2-(thiophen-2-yl)-1H-benzo[d]imidazole-4-carboxamide] gave an IC50 of 130 nM.
`O=C(N[C@@H](CO)Cc1c[nH]cn1)c1ccc(O)c2[nH]c(-c3cccs3)nc12` [Example 17, (R)-7-Hydroxy-N-[1-hydroxy-3-(1H-imidazol-4-yl)propan-2-yl]-2-(thiophen-2-yl)-1H-benzo[d]imidazole-4-carboxamide] showed an IC50 of 170 nM.
Work on `O=C(Nc1cc(O)ccc1C(=O)NC1CCCNC1)c1cccs1` (stereo not drawn) [Example 122, N-(5-hydroxy-2-(piperidin-3-ylcarbamoyl)phenyl)thiophene-2-carboxamide] yielded an IC50 of 8100 nM.
`CC(=O)NCCNC(=O)c1ccc(O)c2[nH]c(-c3cccs3)nc12` [Example 42, N-(2-Acetamidoethyl)-7-hydroxy-2-(thiophen-2-yl)-1H-benzo[d]imidazole-4-carboxamide] gave an IC50 of 74 nM.
For `O=C(NCCCn1ccnc1)c1ccc(O)c2[nH]c(-c3cccs3)nc12` [Example 76, N-[3-(1H-Imidazol-1-yl)propyl]-7-hydroxy-2-(thiophen-2-yl)-1H-benzo[d]imidazole-4-carboxamide], the IC50 was 1.7 nM.
`CS(=O)(=O)Nc1ccc(NCCNC(=O)c2ccc(O)c3[nH]c(-c4cccs4)nc23)nc1` [Example 69, 7-Hydroxy-N-{2-[5-(methylsulfonamido)pyridin-2-ylamino]ethyl}-2-(thiophen-2-yl)-1H-benzo[d]imidazole-4-carboxamide] gave an IC50 of 22 nM.
With `O=C(NCCc1ncc[nH]1)c1ccc(O)c2[nH]c(-c3cccs3)nc12` [Example 62, N-[2-(1H-Imidazol-2-yl)ethyl]-7-hydroxy-2-(thiophen-2-yl)-1H-benzo[d]imidazole-4-carboxamide] the IC50 was 260 nM.
Work on `NS(=O)(=O)c1ccc(CNC(=O)c2ccc(O)c3[nH]c(-c4cccs4)nc23)cc1` [Example 8, 7-Hydroxy-N-(4-sulfamoylbenzyl)-2-(thiophen-2-yl)-1H-benzo[d]imidazole-4-carboxamide] yielded an IC50 of 52 nM.
`O=C(/C=C/c1cnc[nH]1)Nc1ccc(O)c2[nH]c(-c3cccs3)nc12` [Example 120] showed an IC50 of 3000 nM.
`Nc1ccc(CCNC(=O)c2ccc(O)c3nc(-c4ccccc4)[nH]c23)cc1` [Example 93, N-(4-Aminophenethyl)-4-hydroxy-2-phenyl-1H-benzo[d]imidazole-7-carboxamide] was tested, and the IC50 was 400 nM.
Work on `COC(=O)C(CO)NC(=O)c1ccc(O)c2[nH]c(-c3cccs3)nc12` (stereo not drawn) [Example 15, Methyl 3-Hydroxy-2-[7-hydroxy-2-(thiophen-2-yl)-1H-benzo[d]imidazole-4-carboxamido]propanoate] yielded an IC50 of 22 nM.
`CN(C)CCNC(=O)c1ccc(O)c2[nH]c(-c3cccs3)nc12` [Example 36, N-[2-(dimethylamino)ethyl]-7-hydroxy-2-(thiophen-2-yl)-1H-benzo[d]imidazole-4-carboxamide] showed an IC50 of 180 nM.
In the case of `O=C(NCCNS(=O)(=O)c1ccncc1)c1ccc(O)c2[nH]c(-c3cccs3)nc12` [Example 40, 7-Hydroxy-N-[2-(pyridine-4-sulfonamido)ethyl]-2-(thiophen-2-yl)-1H-benzo[d]imidazole-4-carboxamide], the IC50 is reported as 390 nM.
